According to patent US9980943B2, “Methods of treating muscular dystrophy” (BOARD OF REGENTS OF THE NEVADA SYSTEM OF HIGHER EDUCATION, …, priority 2013, dated 2018):

How the values were obtained:
Type in all cases: cell-based, mouse
[1] = test system: α7 integrin (LacZ reporter in α7βgal+/− myoblasts); experiment: Myoblast α7+/LacZ integrin FDG assay (Burkin assay in myoblasts, 96-well); conditions: SU9516 analogs, 96-well, N=3-6
[2] = test system: α7 integrin (LacZ reporter in α7+/LacZ myotubes); experiment: Myotube α7 integrin FDG assay (Burkin assay in myotubes, 96-well); conditions: SU9516 analogs, 96-well, N=3-6
[3] = test system: β-galactosidase in CMV-LacZ C2C12 myoblasts; experiment: CMV-LacZ secondary screen in C2C12 myoblasts (β-Gal stabilizing assay); conditions: SU9516 analogs, C2C12 CMV-LacZ, N=2
How it was run: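 Dose-response runs at 0.5–40 μM (0.5, 1, 5, 10, 20, 40 μM; N=2 per point) used a clonal C2C12 line carrying CMV-LacZ. Cells were assayed as myoblasts or as differentiated myotubes, and β-galactosidase levels were read with the FDG fluorogenic substrate.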

[4] = test system: β-galactosidase in CMV-LacZ C2C12 myotubes; experiment: CMV-LacZ secondary screen in C2C12 myotubes (β-Gal stabilizing assay); conditions: SU9516 analogs, C2C12 CMV-LacZ, N=2
How it was run: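 First, C2C12 myoblasts were transfected with a linearized CMV-LACZ vector and clonal lines selected by FDG β-gal assay. Then cells were exposed to compounds at 0.5, 1, 5, 10, 20 and 40 μM in 96-well format, two replicates each, and β-gal measured.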

For `O=Nc1c(-c2c(O)[nH]c3ccccc23)[nH]c2ccccc12` [NCGC00015545-02], the “Burkin Assay in Myoblasts, value relative to DMSO” value ([1]; 0.5 uM) was 1.175, the “Burkin Assay in Myoblasts, value relative to DMSO” value ([1]; 1 uM) was 1.325 and the “Burkin Assay in Myoblasts, value relative to DMSO” value ([1]; 5 uM) was 0.596. The “Burkin Assay in Myoblasts, value relative to DMSO” value ([1]; 10 uM) was 0.319, the “Burkin Assay in Myoblasts, value relative to DMSO” value ([1]; 20 uM) was 0.3086 and the “Burkin Assay in Myoblasts, value relative to DMSO” value ([1]; 40 uM) was 0.1824. For the same molecule, the “Burkin Assay in Myotubes, value relative to DMSO” value ([2]; 0.5 uM) was 0.913, the “Burkin Assay in Myotubes, value relative to DMSO” value ([2]; 1 uM) was 0.9118 and the “Burkin Assay in Myotubes, value relative to DMSO” value ([2]; 5 uM) was 0.6921. For the same molecule, the “Burkin Assay in Myotubes, value relative to DMSO” value ([2]; 10 uM) was 0.5516, the “Burkin Assay in Myotubes, value relative to DMSO” value ([2]; 20 uM) was 0.4959 and the “Burkin Assay in Myotubes, value relative to DMSO” value ([2]; 40 uM) was 0.3519. The “CMV-LACZ in Myoblasts, value relative to DMSO” value ([3]; 0.5 uM) was 1.0179, the “CMV-LACZ in Myoblasts, value relative to DMSO” value ([3]; 5 uM) was 0.9440 and the “CMV-LACZ in Myoblasts, value relative to DMSO” value ([3]; 10 uM) was 0.8475. For the same molecule, the “CMV-LACZ in Myoblasts, value relative to DMSO” value ([3]; 20 uM) was 0.2907, the “CMV-LACZ in Myoblasts, value relative to DMSO” value ([3]; 40 uM) was 0.2480 and the “CMV-LACZ in Myotubes, value relative to DMSO” value ([4]; 0.5 uM) was 0.8627. The “CMV-LACZ in Myotubes, value relative to DMSO” value ([4]; 1 uM) was 0.9536, the “CMV-LACZ in Myotubes, value relative to DMSO” value ([4]; 5 uM) was 0.7586 and the “CMV-LACZ in Myotubes, value relative to DMSO” value ([4]; 10 uM) was 0.5058. The “CMV-LACZ in Myotubes, value relative to DMSO” value ([4]; 20 uM) was 0.5490 and the “CMV-LACZ in Myotubes, value relative to DMSO” value ([4]; 40 uM) was 0.4770.
In the case of `O=Nc1c(-c2c(O)[nH]c3ccccc23)[nH]c2ccccc12` [NCGC00015545-07], the “Burkin Assay in Myoblasts, value relative to DMSO” value ([1]; 0.5 uM) is reported as 1.073, the “Burkin Assay in Myoblasts, value relative to DMSO” value ([1]; 1 uM) is reported as 1.12 and the “Burkin Assay in Myoblasts, value relative to DMSO” value ([1]; 5 uM) is reported as 0.8463. The “Burkin Assay in Myoblasts, value relative to DMSO” value ([1]; 10 uM) was 0.568, the “Burkin Assay in Myoblasts, value relative to DMSO” value ([1]; 20 uM) was 0.3068 and the “Burkin Assay in Myoblasts, value relative to DMSO” value ([1]; 40 uM) was 0.242. For the same molecule, the “Burkin Assay in Myotubes, value relative to DMSO” value ([2]; 0.5 uM) was 1.126, the “Burkin Assay in Myotubes, value relative to DMSO” value ([2]; 1 uM) was 1.08 and the “Burkin Assay in Myotubes, value relative to DMSO” value ([2]; 5 uM) was 0.8721. The “Burkin Assay in Myotubes, value relative to DMSO” value ([2]; 10 uM) was 0.7457, the “Burkin Assay in Myotubes, value relative to DMSO” value ([2]; 20 uM) was 0.6654 and the “Burkin Assay in Myotubes, value relative to DMSO” value ([2]; 40 uM) was 0.4975. The “CMV-LACZ in Myoblasts, value relative to DMSO” value ([3]; 0.5 uM) was 1.2967, the “CMV-LACZ in Myoblasts, value relative to DMSO” value ([3]; 1 uM) was 1.1950 and the “CMV-LACZ in Myoblasts, value relative to DMSO” value ([3]; 5 uM) was 0.7896. The “CMV-LACZ in Myoblasts, value relative to DMSO” value ([3]; 10 uM) was 0.8603, the “CMV-LACZ in Myoblasts, value relative to DMSO” value ([3]; 20 uM) was 0.5257 and the “CMV-LACZ in Myoblasts, value relative to DMSO” value ([3]; 40 uM) was 0.3383. For the same molecule, the “CMV-LACZ in Myotubes, value relative to DMSO” value ([4]; 0.5 uM) was 1.0736, the “CMV-LACZ in Myotubes, value relative to DMSO” value ([4]; 1 uM) was 1.1036 and the “CMV-LACZ in Myotubes, value relative to DMSO” value ([4]; 5 uM) was 0.9434. The “CMV-LACZ in Myotubes, value relative to DMSO” value ([4]; 10 uM) was 0.8393, the “CMV-LACZ in Myotubes, value relative to DMSO” value ([4]; 20 uM) was 0.7010 and the “CMV-LACZ in Myotubes, value relative to DMSO” value ([4]; 40 uM) was 0.5470.
For `COc1cc(OC)c(/C=C2/C(=O)Nc3ccccc32)c(OC)c1` [NCGC00015546-04], the “Burkin Assay in Myoblasts, value relative to DMSO” value ([1]; 0.5 uM) was 0.8923, the “Burkin Assay in Myoblasts, value relative to DMSO” value ([1]; 1 uM) was 0.9228 and the “Burkin Assay in Myoblasts, value relative to DMSO” value ([1]; 5 uM) was 0.3771. For the same molecule, the “Burkin Assay in Myoblasts, value relative to DMSO” value ([1]; 10 uM) was 0.214, the “Burkin Assay in Myoblasts, value relative to DMSO” value ([1]; 20 uM) was 0.1937 and the “Burkin Assay in Myoblasts, value relative to DMSO” value ([1]; 40 uM) was 0.1497. The “Burkin Assay in Myotubes, value relative to DMSO” value ([2]; 0.5 uM) was 0.9443, the “Burkin Assay in Myotubes, value relative to DMSO” value ([2]; 1 uM) was 1.051 and the “Burkin Assay in Myotubes, value relative to DMSO” value ([2]; 5 uM) was 0.8529. The “Burkin Assay in Myotubes, value relative to DMSO” value ([2]; 10 uM) was 0.8253, the “Burkin Assay in Myotubes, value relative to DMSO” value ([2]; 20 uM) was 0.7881 and the “Burkin Assay in Myotubes, value relative to DMSO” value ([2]; 40 uM) was 0.7965. For the same molecule, the “CMV-LACZ in Myoblasts, value relative to DMSO” value ([3]; 0.5 uM) was 1.1442, the “CMV-LACZ in Myoblasts, value relative to DMSO” value ([3]; 5 uM) was 1.4889 and the “CMV-LACZ in Myoblasts, value relative to DMSO” value ([3]; 10 uM) was 1.2439. For the same molecule, the “CMV-LACZ in Myoblasts, value relative to DMSO” value ([3]; 20 uM) was 0.8083, the “CMV-LACZ in Myoblasts, value relative to DMSO” value ([3]; 40 uM) was 0.5873 and the “CMV-LACZ in Myotubes, value relative to DMSO” value ([4]; 0.5 uM) was 1.1555. For the same molecule, the “CMV-LACZ in Myotubes, value relative to DMSO” value ([4]; 1 uM) was 1.1427, the “CMV-LACZ in Myotubes, value relative to DMSO” value ([4]; 5 uM) was 1.0553 and the “CMV-LACZ in Myotubes, value relative to DMSO” value ([4]; 10 uM) was 1.1513. For the same molecule, the “CMV-LACZ in Myotubes, value relative to DMSO” value ([4]; 20 uM) was 1.0230 and the “CMV-LACZ in Myotubes, value relative to DMSO” value ([4]; 40 uM) was 1.0700.
